Source: patent publication US20240116985A1, “STAPLED PEPTIDES AND METHODS THEREOF” (priority 2020, published 2024)
Values after ≈ are worked out from the molar mass of the structure shown. Like-named read-outs stand apart in the source and are kept apart here.

Key:
Solubility in PBS = format: physicochemical
Outline: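 Read-out is the HPLC peak area of the supernatant from ultracentrifuged PBS solution, scaled against a 50 μM peptide DMSO injection; value reported as [(PBS area)/(DMSO area)]*50 uM.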

[1] = biological target: T1, full-length beta-Catenin (Uniprot ID P35222) (Homo sapiens, UniProt P35222); experiment: Fluorescence polarization IC50 (beta-catenin / 5FAM-TCF4 10-53 competition); format: binding
T1 construct: 10 nM full-length beta-Catenin (Uniprot ID P35222)
T1 sequence (P35222 1-781): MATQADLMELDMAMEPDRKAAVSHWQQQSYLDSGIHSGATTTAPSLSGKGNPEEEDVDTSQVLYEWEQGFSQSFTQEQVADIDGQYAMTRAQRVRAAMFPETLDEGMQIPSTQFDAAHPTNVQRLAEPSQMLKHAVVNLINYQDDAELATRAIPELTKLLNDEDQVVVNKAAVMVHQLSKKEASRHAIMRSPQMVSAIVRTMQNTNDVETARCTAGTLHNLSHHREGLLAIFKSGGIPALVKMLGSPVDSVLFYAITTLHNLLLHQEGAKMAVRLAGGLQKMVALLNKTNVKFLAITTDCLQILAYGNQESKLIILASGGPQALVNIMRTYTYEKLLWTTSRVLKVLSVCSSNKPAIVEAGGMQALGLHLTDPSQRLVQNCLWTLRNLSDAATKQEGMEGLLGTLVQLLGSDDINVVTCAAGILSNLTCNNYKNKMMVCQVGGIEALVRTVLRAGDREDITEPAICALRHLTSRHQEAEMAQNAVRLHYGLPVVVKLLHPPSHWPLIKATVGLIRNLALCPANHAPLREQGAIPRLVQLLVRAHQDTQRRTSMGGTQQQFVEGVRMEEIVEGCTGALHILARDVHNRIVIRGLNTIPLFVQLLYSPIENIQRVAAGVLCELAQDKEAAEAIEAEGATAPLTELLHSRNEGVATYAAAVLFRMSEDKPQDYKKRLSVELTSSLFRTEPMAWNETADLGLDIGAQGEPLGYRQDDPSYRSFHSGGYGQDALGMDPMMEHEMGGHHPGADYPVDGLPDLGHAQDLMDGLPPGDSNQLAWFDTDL

CHI Log D procedure = format: physicochemical; details: for chromatographic logD: pH 7.4, CHI Log D; for CHI Log D: pH 7.4
[2] = biological target: T2, beta-catenin/TCF4 engagement (Homo sapiens, UniProt P35222); experiment: Nano-BRET target engagement assay (B-cat-Halo & TCF4-Luc in HEK293 cells); format: cell-based
T2 construct: expressed in transfected cells; host or cells: HEK293
T2 sequence (P35222 1-781): T1 sequence (P35222 1-781)

[3] = fluorescence polarization, read-out: beta-Catenin FP IC50
[4] = absolute IC50, read-out: NanoBRET Abs IC50

| SMILES | Solubility (Solubility in PBS; Solubility (uM)) [µM] | IC50 [1, 3] [nM] | chromatographic logD (CHI Log D procedure) | inhibition at 10 µM ([2]; HEK293, @ 10 uM, read-out: NanoBRET % inh @ 10 uM) [%] | Solubility (Solubility in PBS) [µM] | CHI Log D (CHI Log D procedure) | IC50 [2, 4] [nM] | IC50 ([1]; read-out: FP EC50) [nM] | IC50 ([2]; Abs IC50, read-out: NanoBRET Abs IC50) [nM] | IC50 ([2]; read-out: NanoBRET IC50) [nM] |
| --- | --- | --- | --- | --- | --- | --- | --- | --- | --- | --- |
| CC(=O)N1CCC[C@]12CC=CCCCC1(CCCC=CCCCOC(=O)N3CC[C@@](C(=O)N[C@@H](Cc4ccsc4)C(=O)N[C@@H](Cc4csc5ccccc45)C(=O)N[C@@H](Cc4c[nH]cn4)C(N)=O)(C3)NC(=O)[C@H](CC(N)=O)NC(=O)[C@H](Cc3ccccc3)NC(=O)[C@H](C)NC(=O)[C@H](C)NC(=O)[C@H](CC(=O)O)NC(=O)[C@H](CC(=O)O)NC1=O)NC(=O)[C@H](CC(C)C)NC(=O)[C@H](CC(=O)O)NC2=O (stereo partly drawn) [I-696, Ac-PL3-Asp-Leu-B5-Asp-Asp-Ala-Ala-Phe-Asn-PyrS2-3Thi-BztA-His-NH2] | 40 (≈ 76.5 µg/mL) | 5 | 2 | 17 |  |  |  |  |  |  |
| CC(=O)N1CCC[C@]12CC=CCCCC1(CCCC=CCCCOC(=O)N3CC[C@@](C(=O)N[C@@H](Cc4ccsc4)C(=O)N[C@@H](Cc4csc5ccccc45)C(=O)N[C@@H](Cc4c[nH]cn4)C(N)=O)(C3)NC(=O)[C@H](CC(N)=O)NC(=O)[C@H](Cc3ccccc3)NC(=O)[C@H](C)NC(=O)[C@H](C)NC(=O)[C@H](CCC(=O)O)NC(=O)[C@H](CC(=O)O)NC1=O)NC(=O)[C@H](CC(C)(C)C)NC(=O)[C@H](CC(=O)O)NC2=O (stereo partly drawn) [I-697, Ac-PL3-Asp-Npg-B5-Asp-Glu-Ala-Ala-Phe-Asn-PyrS2-3Thi-BztA-His-NH2] |  | 5 |  |  | 21 (≈ 40.8 µg/mL) | 2.093 | 14700 |  |  |  |
| CC[C@H](C)[C@@H]1NC(=O)[C@H](CC(=O)O)NC(=O)[C@]2(CC=CCCCC3(CCCC=CCCCCCC[C@@](C)(C(=O)N[C@@H](Cc4ccsc4)C(=O)N[C@@H](Cc4csc5ccccc45)C(=O)N[C@@H](CCC(N)=O)C(N)=O)NC(=O)[C@H](CC(N)=O)NC(=O)[C@H](Cc4ccccc4)NC(=O)[C@H](C)NC(=O)[C@H](C)NC(=O)[C@H](CN(CC(=O)O)CC(F)(F)F)NC(=O)[C@H](CC(=O)O)NC3=O)NC1=O)CCCN2C(C)=O (stereo partly drawn) [I-701, Ac-PL3-Asp-Ile-B5-Asp-TfeGA-Ala-Ala-Phe-Asn-S8-3Thi-BztA-Gln-NH2] |  | 34 |  |  | 46 (≈ 90.7 µg/mL) | 2.631 | 18100 | 34 |  |  |
| CC(=O)N1CCC[C@]12CC=CCCCC1(CCCC=CCCCCCC[C@@](C)(C(=O)N[C@@H](Cc3ccccc3)C(=O)N[C@@H](Cc3csc4ccccc34)C(=O)N[C@@H](CCC(N)=O)C(N)=O)NC(=O)[C@H](CC(N)=O)NC(=O)[C@H](Cc3ccccc3)NC(=O)[C@H](C)NC(=O)[C@H](C)NC(=O)[C@H](CN(CC(=O)O)CC(F)(F)F)NC(=O)[C@H](CC(=O)O)NC1=O)NC(=O)[C@H](CC(C)(C)C)NC(=O)[C@H](CC(=O)O)NC2=O (stereo partly drawn) [I-703, Ac-PL3-Asp-Npg-B5-Asp-TfeGA-Ala-Ala-Phe-Asn-S8-Phe-BztA-Gln-NH2] |  | 57 | 2.76 |  | 50 (≈ 99 µg/mL) |  |  |  | 11900 |  |
| CC(=O)N1CCC[C@]12CC=CCCCC1(CCCC=CCCCCCC[C@@](C)(C(=O)N[C@@H](Cc3ccsc3)C(=O)N[C@@H](Cc3csc4ccccc34)C(=O)N[C@@H](CCC(N)=O)C(N)=O)NC(=O)[C@H](CC(N)=O)NC(=O)[C@H](Cc3ccccc3)NC(=O)[C@H](C)NC(=O)[C@H](C)NC(=O)[C@H](CN(CC(=O)O)CC(F)(F)F)NC(=O)[C@H](CC(=O)O)NC1=O)NC(=O)[C@H](CC(C)(C)C)NC(=O)[C@H](CC(=O)O)NC2=O (stereo partly drawn) [I-704, Ac-PL3-Asp-Npg-B5-Asp-TfeGA-Ala-Ala-Phe-Asn-S8-3Thi-BztA-Gln-NH2] | 42 (≈ 83.4 µg/mL) | 49 | 2.75 |  |  |  |  |  |  | 7900 |
| CC(=O)N1CCC[C@]12CC=CCCCC1(CCCC=CCCCCCC[C@@](C)(C(=O)N[C@@H](Cc3ccsc3)C(=O)N[C@@H](Cc3csc4ccccc34)C(=O)N[C@@H](CCC(N)=O)C(N)=O)NC(=O)[C@H](CC(N)=O)NC(=O)[C@H](Cc3ccccc3)NC(=O)[C@H](C)NC(=O)[C@H](C)NC(=O)[C@H](CN(CC(=O)O)CC(F)(F)F)NC(=O)[C@H](CC(=O)O)NC1=O)NC(=O)[C@H](CC1CCCCC1)NC(=O)[C@H](CC(=O)O)NC2=O (stereo partly drawn) [I-708, Ac-PL3-Asp-Cha-B5-Asp-TfeGA-Ala-Ala-Phe-Asn-S8-3Thi-BztA-Gln-NH2] |  | 52 |  |  | 47 (≈ 94.6 µg/mL) | 2.976 |  | 52 |  | 11500 |
| CC(=O)N1CCC[C@]12CC=CCCCC1(CCCC=CCCCCCC[C@@](C)(C(=O)N[C@@H](Cc3ccccc3)C(=O)N[C@@H](Cc3csc4ccccc34)C(=O)N[C@@H](CCC(N)=O)C(=O)N[C@@H](C)C(N)=O)NC(=O)[C@H](CC(N)=O)NC(=O)[C@H](Cc3ccccc3)NC(=O)[C@H](C)NC(=O)[C@H](C)NC(=O)[C@H](CCC(=O)O)NC(=O)[C@H](CC(=O)O)NC1=O)NC(=O)[C@H](CC(C)C)NC(=O)[C@H](CC(=O)O)NC2=O (stereo partly drawn) [I-730, Ac-PL3-Asp-Leu-B5-Asp-Glu-Ala-Ala-Phe-Asn-S8-Phe-BztA-Gln-Ala-NH2] |  | 35 |  |  | 44 (≈ 85.4 µg/mL) | 2.377 | 11200 | 35 |  |  |
| CC(=O)N1CCC[C@]12CC=CCCCC1(CCCC=CCCCCCC[C@@](C)(C(=O)N[C@@H](Cc3ccccc3)C(=O)N[C@@H](Cc3csc4ccccc34)C(=O)N[C@@H](CCC(N)=O)C(=O)N[C@H](C)C(N)=O)NC(=O)[C@H](CC(N)=O)NC(=O)[C@H](Cc3ccccc3)NC(=O)[C@H](C)NC(=O)[C@H](C)NC(=O)[C@H](CCC(=O)O)NC(=O)[C@H](CC(=O)O)NC1=O)NC(=O)[C@H](CC(C)C)NC(=O)[C@H](CC(=O)O)NC2=O (stereo partly drawn) [I-731, Ac-PL3-Asp-Leu-B5-Asp-Glu-Ala-Ala-Phe-Asn-S8-Phe-BztA-Gln-dAla-NH2] | 48 (≈ 93.1 µg/mL) | 34 | 2.33 |  |  |  | 11600 |  |  |  |
| CC(=O)N1CCC[C@]12CC=CCCCC1(CCCC=CCCCCCC[C@@](C)(C(=O)N[C@@H](Cc3ccccc3)C(=O)N[C@@H](Cc3csc4ccccc34)C(=O)N[C@H](C(N)=O)[C@@H](C)O)NC(=O)[C@H](CC(N)=O)NC(=O)[C@H](Cc3ccccc3)NC(=O)[C@H](C)NC(=O)[C@H](C)NC(=O)[C@H](CCC(=O)O)NC(=O)[C@H](CC(=O)O)NC1=O)NC(=O)[C@H](CC(C)C)NC(=O)[C@H](CC(=O)O)NC2=O (stereo partly drawn) [I-749, Ac-PL3-Asp-Leu-B5-Asp-Glu-Ala-Ala-Phe-Asn-S8-Phe-BztA-Thr-NH2] |  | 40 |  |  | 45 (≈ 82.9 µg/mL) | 2.472 | 9000 | 40 |  |  |
| CC(=O)N1CCC[C@]12CC=CCCCC1(CCCC=CCCCCCC[C@@](C)(C(=O)N[C@@H](Cc3ccccc3)C(=O)N[C@@H](Cc3csc4ccccc34)C(=O)N[C@@H](CO)C(N)=O)NC(=O)[C@H](CC(N)=O)NC(=O)[C@H](Cc3ccccc3)NC(=O)[C@H](C)NC(=O)[C@H](C)NC(=O)[C@H](CCC(=O)O)NC(=O)[C@H](CC(=O)O)NC1=O)NC(=O)[C@H](CC(C)C)NC(=O)[C@H](CC(=O)O)NC2=O (stereo partly drawn) [I-750, Ac-PL3-Asp-Leu-B5-Asp-Glu-Ala-Ala-Phe-Asn-S8-Phe-BztA-Ser-NH2] |  | 43 |  |  | 48 (≈ 87.7 µg/mL) | 2.441 | 7400 | 43 |  |  |
| CC(=O)N1CCC[C@]12CC=CCCCC1(CCCC=CCCCCCC[C@@](C)(C(=O)N[C@@H](Cc3ccccc3)C(=O)N[C@@H](Cc3csc4ccccc34)C(=O)N[C@@H](CO)C(N)=O)NC(=O)[C@H](CC(N)=O)NC(=O)[C@H](Cc3ccccc3)NC(=O)[C@H](C)NC(=O)[C@H](C)NC(=O)[C@H](CCC(=O)O)NC(=O)[C@H](CC(=O)O)NC1=O)NC(=O)[C@H](CC(C)C)NC(=O)[C@H](CC(=O)O)NC2=O (stereo partly drawn) [I-751, Ac-PL3-Asp-Leu-B5-Asp-Glu-Ala-Ala-Phe-Asn-S8-Phe-BztA-Ser-NH2] |  | 29 |  |  | 48 (≈ 87.7 µg/mL) | 2.513 | 7100 | 29 |  |  |
